Measurements from ChEMBL document CHEMBL1153015, “A new type of five-membered heterocyclic inhibitors of basic metallocarboxypeptidases” (Eur J Med Chem, 2009).

Tests used:
Carboxypeptidase B [1] = biological target: T1, Carboxypeptidase B (Helicoverpa zea, UniProt Q3T905); test: Inhibition of corn earworm recombinant carboxypeptidase B expressed in Pichia pastoris system
T1 sequence (Q3T905 whole entry): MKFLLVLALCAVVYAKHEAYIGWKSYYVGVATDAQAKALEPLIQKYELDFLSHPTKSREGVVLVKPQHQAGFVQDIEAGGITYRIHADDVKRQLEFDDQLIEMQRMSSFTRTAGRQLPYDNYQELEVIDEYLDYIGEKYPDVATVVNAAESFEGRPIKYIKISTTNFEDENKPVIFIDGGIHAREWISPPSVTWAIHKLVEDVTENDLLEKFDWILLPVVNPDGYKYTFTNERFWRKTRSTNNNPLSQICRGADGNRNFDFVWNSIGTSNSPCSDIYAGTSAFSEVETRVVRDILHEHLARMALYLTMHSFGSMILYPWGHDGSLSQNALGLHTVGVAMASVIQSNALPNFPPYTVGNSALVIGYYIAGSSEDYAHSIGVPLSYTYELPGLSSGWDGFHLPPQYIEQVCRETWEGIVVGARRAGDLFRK

Carboxypeptidase A1 = biological target: T2, Carboxypeptidase A1 (Bos taurus, UniProt P00730); test: Inhibition of bovine carboxypeptidase A1
T2 sequence (P00730 whole entry): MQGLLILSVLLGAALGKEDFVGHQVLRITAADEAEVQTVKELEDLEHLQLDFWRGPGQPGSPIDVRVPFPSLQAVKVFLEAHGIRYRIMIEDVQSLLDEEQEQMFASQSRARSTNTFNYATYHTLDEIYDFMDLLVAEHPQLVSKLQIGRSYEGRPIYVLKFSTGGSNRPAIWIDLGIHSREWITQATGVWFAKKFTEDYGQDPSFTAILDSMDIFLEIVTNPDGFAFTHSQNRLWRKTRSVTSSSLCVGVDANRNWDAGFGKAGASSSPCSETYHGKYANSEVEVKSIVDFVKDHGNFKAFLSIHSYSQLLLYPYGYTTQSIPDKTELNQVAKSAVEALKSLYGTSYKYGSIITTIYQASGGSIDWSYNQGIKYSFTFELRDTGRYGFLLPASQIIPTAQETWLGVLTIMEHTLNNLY

Carboxypeptidase B [2] = biological target: T3, Carboxypeptidase B (Homo sapiens, UniProt P15086); test: Inhibition of human recombinant carboxypeptidase B expressed in Pichia pastoris system
T3 sequence (P15086 whole entry): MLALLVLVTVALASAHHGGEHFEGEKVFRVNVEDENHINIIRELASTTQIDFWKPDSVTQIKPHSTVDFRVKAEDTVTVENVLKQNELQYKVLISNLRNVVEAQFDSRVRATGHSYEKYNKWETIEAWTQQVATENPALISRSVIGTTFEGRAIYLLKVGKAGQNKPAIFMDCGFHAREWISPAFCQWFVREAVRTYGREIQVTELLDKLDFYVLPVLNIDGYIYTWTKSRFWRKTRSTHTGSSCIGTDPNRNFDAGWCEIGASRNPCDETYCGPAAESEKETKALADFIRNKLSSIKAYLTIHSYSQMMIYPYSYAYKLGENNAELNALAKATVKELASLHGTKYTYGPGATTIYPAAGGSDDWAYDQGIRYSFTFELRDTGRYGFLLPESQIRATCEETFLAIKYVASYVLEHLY

[3] = Selectivity ratio, Ki for bovine carboxypeptidase A1 to Ki for human recombinant carboxypeptidase B

Row | Ki (Carboxypeptidase B [1]) | Ki (Carboxypeptidase A1) [µM] | Ki (Carboxypeptidase B [2]) [µM] | Ki (Carboxypeptidase B [1]; read-out: Ki) [µM] | Ratio Ki [3] | SMILES
1 | Not Active | 19.4 | 23 | – | – | O=S(=O)(NCc1ccccc1)c1ccc(S(=O)(=O)N(Cc2cccs2)CC2CCCO2)cc1 (configuration not stated)
2 | – | 155 | 11.6 | 27.2 | – | NC(=O)CSc1nnc(-c2cccs2)n1Cc1ccccc1
3 | – | 800 | 4.5 | 1.2 | 160 | O=C(C1CC1)N(Cc1ccccc1)c1nc(-c2ccccc2)cs1
4 | – | 160 | 7.4 | 36.1 | – | COc1ccccc1-c1nnc(SCC(=O)OC(C)C)n1Cc1ccccc1
5 | – | 0.5 | 10 | 11.9 | – | O=C(O)CC(Cc1ccccc1)C(=O)O (racemic)
6 | – | 67.3 | 40 | 1.4 | – | O=S(=O)(NCc1cccs1)c1ccc(-c2nnc(SCc3ccccc3Cl)o2)cc1
7 | – | 22 | 10.8 | 11.9 | – | CCOC(=O)C(Sc1nnc(COc2ccc(CC)cc2)n1CC)C(C)C (configuration not stated)
8 | – | 32 | 67.2 | 33.4 | – | O=C(CSc1nnc(-c2ccccc2F)o1)OCc1ccccc1
9 | – | 148 | 23.9 | 28.4 | – | COc1cccc(CN(Cc2cccnc2)S(=O)(=O)c2ccc(-n3cnnn3)c(C)c2)c1
10 | – | – | 1.1 | – | – | N=C(N)NCCSC(CC(=O)O)C(=O)O (racemic)
11 | – | 138 | 25.9 | 38 | – | Cc1ccccc1CCNS(=O)(=O)c1ccc(-n2cnnn2)c(C)c1
12 | Not Active | 74.5 | 9.1 | – | – | O=C(CSc1nnc(-c2ccc(O)cc2)n1Cc1ccco1)c1cccs1
13 | – | 159 | 4.9 | 41.6 | 30 | COC(=O)CSc1nnc(-c2ccccc2O)n1Cc1ccccc1
14 | – | 550 | 33.6 | 53.8 | – | O=C(O)c1cccc(-n2nnnc2SCC(=O)c2ccccc2F)c1
15 | – | 250 | 364 | 18 | – | Cc1ccc(S(=O)(=O)N2CCN(C(=O)CNCc3ccncc3)CC2)cc1
16 | – | 320 | 20.7 | 19.6 | – | O=C(O)c1ccccc1C(=O)N1CCC(C(=O)c2ccccc2)CC1
17 | – | 217 | 196 | 57 | – | Cc1cccc(CCc2nnc(SCC(=O)O)n2Cc2ccccc2)c1
18 | – | 86.3 | 15 | 9 | – | Cc1ccc(C)c2c1[nH]c1nc(SCC(=O)c3ccc(F)cc3)nnc12
19 | – | 36.7 | 11.7 | 12 | – | Cc1ccc(C(=O)CSc2nnc(COc3ccc(Cl)cc3)o2)cc1
20 | – | 128 | 25.1 | 19.7 | – | CCCN(C(=O)Cc1ccccc1OC)c1nnc(-c2ccc(OC)cc2)s1
21 | – | 39.3 | 14.7 | 40 | – | Cc1ccccc1-c1nnc(SCC(=O)c2ccccc2F)o1
22 | – | 22.5 | 1.2 | 3.6 | – | COc1cccc(CSc2nnc(Cc3csc(Nc4cccc(Cl)c4)n3)o2)c1
23 | – | 381 | 20.8 | 30.2 | – | COc1ccccc1Cn1c(SCC(=O)N2CCC(C)CC2)nnc1-c1ccncc1
24 | Not Active | 236 | 74.5 | – | – | O=C(CSc1nnc(-c2ccco2)n1Cc1ccccc1)c1ccc(F)cc1
25 | – | 2.1 | 7.5 | 1 | 20 | O=C(CSc1nnc(-c2ccccc2O)o1)c1ccc(Cl)cc1
26 | – | 159 | 16.6 | 12.6 | – | Cc1cc(S(=O)(=O)N(Cc2ccco2)Cc2ccccc2Cl)ccc1-n1cnnn1
27 | – | 41.3 | 292 | 31 | – | COc1ccc(C(=O)Cn2nnc(-c3ccccc3NC(=O)C3CC3)n2)cc1
